Data reported in patent US20060241172A1, “Benzodioxane and benzodioxolane derivatives and uses thereof” (Wyeth, priority 2005, published 2006).
Read-outs that look alike come from different tables or passages of the source.

What was measured:
[1] = target: T1, human 5-HT2C receptor (Homo sapiens, UniProt P28335); experiment: 5-HT2C receptor-stimulated calcium mobilization (FLIPR) in CHO cells; assay type: cell-based; conditions: for Emax: CHO, read-out: 5-HT2C Function EMax (%); for EC50: read-out: 5-HT2C Function EC50
T1 sequence (P28335 33-458): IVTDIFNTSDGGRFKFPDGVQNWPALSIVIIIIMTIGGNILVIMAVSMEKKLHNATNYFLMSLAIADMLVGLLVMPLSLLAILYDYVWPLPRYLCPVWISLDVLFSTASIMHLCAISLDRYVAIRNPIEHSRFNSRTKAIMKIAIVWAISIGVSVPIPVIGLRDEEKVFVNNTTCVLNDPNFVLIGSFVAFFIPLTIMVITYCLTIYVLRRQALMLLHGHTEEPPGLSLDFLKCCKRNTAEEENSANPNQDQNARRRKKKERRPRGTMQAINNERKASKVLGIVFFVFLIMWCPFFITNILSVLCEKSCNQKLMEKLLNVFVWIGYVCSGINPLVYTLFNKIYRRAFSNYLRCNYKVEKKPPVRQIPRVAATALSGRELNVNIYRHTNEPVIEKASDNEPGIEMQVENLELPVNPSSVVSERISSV

[2] = target: T2, human 5-hydroxytryptamine-2C (h5-HT2C) receptor (Homo sapiens, UniProt P28335); experiment: 5-HT2C binding: [125I]DOI displacement in membranes of transfected CHO cells
T2 construct: expressed in transfected cells; host or cells: CHO (Chinese Hamster Ovary) cells; membranes
T2 sequence (P28335 33-458): T1 sequence (P28335 33-458)

[3] = read-out: 5-HT2C Binding Ki avg

Structure (SMILES) | Emax [1] [%] | EC50 [1] [µM] | Ki [2, 3] [µM] | Ki ([2]; reference compounds, 95% confidence interval in the next column, read-out: Ki) [µM]
NCC1COc2cccc(-c3ccccc3F)c2O1 (stereo not drawn) [Compound I-2, {[8-(2-Fluorophenyl)-2,3-dihydro-1,4-benzodioxin-2-yl]methyl}amine] | 70 | < 0.1 | < 0.05 | –
Cc1ccccc1-c1cccc2c1OC(CN)CO2 (stereo not drawn) [Compound I-3, {[8-(2-Methylphenyl)-2,3-dihydro-1,4-benzodioxin-2-yl]methyl}amine] | 60 | < 0.1 | < 0.05 | –
COc1ccccc1-c1cccc2c1OC(CN)CO2 (stereo not drawn) [Compound I-5, {[8-(2-Methoxyphenyl)-2,3-dihydro-1,4-benzodioxin-2-yl]methyl}amine] | 60 | < 0.1 | 0.05 to 0.2 | –
COc1cccc(-c2cccc3c2OC(CN)CO3)c1OC (stereo not drawn) [Compound I-9, {[8-(2,3-Dimethoxyphenyl)-2,3-dihydro-1,4-benzodioxin-2-yl]methyl}amine] | 50 | < 0.1 | < 0.05 | –
Cc1cccc(-c2cccc3c2OC(CN)CO3)c1C (stereo not drawn) [Compound I-10, {[8-(2,3-Dimethylphenyl)-2,3-dihydro-1,4-benzodioxin-2-yl]methyl}amine] | 50 | 0.1 to 0.5 | > 0.2 | –
Cc1ccc(C)c(-c2cccc3c2OC(CN)CO3)c1 (stereo not drawn) [Compound I-11, {[8-(2,5-Dimethylphenyl)-2,3-dihydro-1,4-benzodioxin-2-yl]methyl}amine] | 60 | 0.1 to 0.5 | > 0.2 | –
Cc1cccc(C)c1-c1cccc2c1OC(CN)CO2 (stereo not drawn) [Compound I-12, {[8-(2,6-Dimethylphenyl)-2,3-dihydro-1,4-benzodioxin-2-yl]methyl}amine] | 70 | < 0.1 | < 0.05 | –
NCC1COc2cccc(-c3cccc(F)c3F)c2O1 (stereo not drawn) [Compound I-13, {[8-(2,3-Difluorophenyl)-2,3-dihydro-1,4-benzodioxin-2-yl]methyl}amine] | 70 | < 0.1 | < 0.05 | –
NCC1COc2cccc(-c3ccc(F)cc3F)c2O1 (stereo not drawn) [Compound I-14, {[8-(2,4-Difluorophenyl)-2,3-dihydro-1,4-benzodioxin-2-yl]methyl}amine] | 70 | < 0.1 | < 0.05 | –
NCC1COc2cccc(-c3cc(F)ccc3F)c2O1 (stereo not drawn) [Compound I-15, {[8-(2,5-Difluorophenyl)-2,3-dihydro-1,4-benzodioxin-2-yl]methyl}amine] | 60 | < 0.1 | < 0.05 | –
CNCC1COc2cccc(-c3ccccc3F)c2O1 (stereo not drawn) [Compound I-18, {[8-(2-Fluorophenyl)-2,3-dihydro-1,4-benzodioxin-2-yl]methyl}methylamine] | 50 | < 0.1 | < 0.05 | –
CNCC1COc2cccc(-c3ccccc3OC)c2O1 (stereo not drawn) [Compound I-19, {[8-(2-Methoxyphenyl)-2,3-dihydro-1,4-benzodioxin-2-yl]methyl}methylamine] | 20 | 0.1 to 0.5 | > 0.2 | –
CNCC1COc2cccc(-c3ccccc3C(F)(F)F)c2O1 (stereo not drawn) [Compound I-20, N-Methyl-1-{8-[2-(trifluoromethyl)phenyl]-2,3-dihydro-1,4-benzodioxin-2-yl}methanamine] | 40 | > 0.5 | 0.05 to 0.2 | –
CNCC1COc2cccc(-c3cccc(OC)c3OC)c2O1 (stereo not drawn) [Compound I-30, {[8-(2,3-Dimethoxyphenyl)-2,3-dihydro-1,4-benzodioxin-2-yl]methyl}methylamine] | – | > 0.5 | 0.05 to 0.2 | –
CN(C)CC1COc2cccc(-c3ccccc3Cl)c2O1 (stereo not drawn) [Compound I-38, {[8-(2-Chlorophenyl)-2,3-dihydro-1,4-benzodioxin-2-yl]methyl}dimethylamine] | 30 | 0.1 to 0.5 | < 0.05 | –
NCC1Oc2cc(Cl)cc(-c3ccccc3F)c2O1 (stereo not drawn) [Compound I-93, [6-Chloro-4-(2-fluoro-phenyl)-benzo[1,3]dioxol-2-yl]-methylamine] | – | – | 0.05 to 0.2 | –
COc1ccc(Cl)cc1-c1cc(Cl)cc2c1OC(CN)O2 (stereo not drawn) [Compound I-94, [6-Chloro-4-(2-methoxy-5-chloro-phenyl)-benzo[1,3]dioxol-2-yl]-methylamine] | – | – | > 0.2 | –
COc1cccc(-c2cc(Cl)cc3c2OC(CN)O3)c1OC (stereo not drawn) [Compound I-95, [6-Chloro-4-(2,3-dimethoxy-phenyl)-benzo[1,3]dioxol-2-yl]-methylamine] | – | – | 0.05 to 0.2 | –
Cc1cc(Cl)ccc1-c1cc(Cl)cc2c1OC(CN)O2 (stereo not drawn) [Compound I-97, [6-Chloro-4-(4-chloro-2-methyl-phenyl)-benzo[1,3]dioxol-2-yl]-methylamine] | – | – | 0.05 to 0.2 | –
NCC1Oc2cc(Cl)cc(-c3cc(F)ccc3F)c2O1 (stereo not drawn) [Compound I-99, [6-Chloro-4-(2,5-difluoro-phenyl)-benzo[1,3]dioxol-2-yl]-methylamine] | – | – | 0.05 to 0.2 | –
COc1ccc(OC)c(-c2cc(Cl)cc3c2OC(CN)O3)c1 (stereo not drawn) [Compound I-100, [6-Chloro-4-(2,5-dimethoxy-phenyl)-benzo[1,3]dioxol-2-yl]-methylamine] | – | – | > 0.2 | –
CSc1ccc2c(c1)C(N1CCN(C)CC1)Cc1ccccc1S2 (stereo not drawn) [Methiothepin, reference compound] | – | – | – | 0.0046

More lines, main results first:

Emax [1] [%] | EC50 [1] [µM] | Ki [2, 3] [µM] | Structure (SMILES) | Ki ([2]; reference compounds, 95% confidence interval in the next column, read-out: Ki) [µM]
70 | 0.1 to 0.5 | 0.05 to 0.2 | NCC1COc2cccc(-c3cccc(Cl)c3Cl)c2O1 (stereo not drawn) [Compound I-6, {[8-(2,3-Dichlorophenyl)-2,3-dihydro-1,4-benzodioxin-2-yl]methyl}amine] | –
70 | < 0.1 | < 0.05 | NCC1COc2cccc(-c3ccc(Cl)cc3Cl)c2O1 (stereo not drawn) [Compound I-7, {[8-(2,4-Dichlorophenyl)-2,3-dihydro-1,4-benzodioxin-2-yl]methyl}amine] | –
60 | < 0.1 | < 0.05 | NCC1COc2cccc(-c3cc(Cl)ccc3Cl)c2O1 (stereo not drawn) [Compound I-8, {[8-(2,5-Dichlorophenyl)-2,3-dihydro-1,4-benzodioxin-2-yl]methyl}amine] | –
60 | < 0.1 | 0.05 to 0.2 | COc1ccc(Cl)cc1-c1cccc2c1OC(CN)CO2 (stereo not drawn) [Compound I-16, {[8-(5-Chloro-2-methoxyphenyl)-2,3-dihydro-1,4-benzodioxin-2-yl]methyl}amine] | –
40 | < 0.1 | < 0.05 | CNCC1COc2cccc(-c3ccccc3Cl)c2O1 (stereo not drawn) [Compound I-21, {[8-(2-Chlorophenyl)-2,3-dihydro-1,4-benzodioxin-2-yl]methyl}methylamine] | –
20 | 0.1 to 0.5 | > 0.2 | CNCC1COc2cccc(-c3cc(Cl)ccc3OC)c2O1 (stereo not drawn) [Compound I-31, {[8-(5-Chloro-2-methoxyphenyl)-2,3-dihydro-1,4-benzodioxin-2-yl]methyl}methylamine] | –
30 | > 0.5 | 0.05 to 0.2 | CCNCC1COc2cccc(-c3ccc(Cl)cc3Cl)c2O1 (stereo not drawn) [Compound I-33, N-{[8-(2,4-Dichlorophenyl)-2,3-dihydro-1,4-benzodioxin-2-yl]methyl}ethanamine] | –
– | > 0.5 | 0.05 to 0.2 | CCCNCC1COc2cccc(-c3ccc(Cl)cc3Cl)c2O1 (stereo not drawn) [Compound I-35, N-{[8-(2,4-Dichlorophenyl)-2,3-dihydro-1,4-benzodioxin-2-yl]methyl}propan-1-amine] | –
– | > 0.5 | > 0.2 | CC(C)NCC1COc2cccc(-c3ccccc3Cl)c2O1 (stereo not drawn) [Compound I-36, N-{[8-(2-Chlorophenyl)-2,3-dihydro-1,4-benzodioxin-2-yl]methyl}propan-2-amine] | –
20 | > 0.5 | > 0.2 | CC(C)NCC1COc2cccc(-c3ccc(Cl)cc3Cl)c2O1 (stereo not drawn) [Compound I-37, N-{[8-(2,4-Dichlorophenyl)-2,3-dihydro-1,4-benzodioxin-2-yl]methyl}propan-2-amine] | –
20 | 0.1 to 0.5 | < 0.05 | CN(C)CC1COc2cccc(-c3ccc(Cl)cc3Cl)c2O1 (stereo not drawn) [Compound I-39, {[8-(2,4-Dichlorophenyl)-2,3-dihydro-1,4-benzodioxin-2-yl]methyl}dimethylamine] | –
30 | > 0.5 | > 0.2 | C=CCNCC1COc2cccc(-c3ccc(Cl)cc3Cl)c2O1 (stereo not drawn) [Compound I-40, N-{[8-(2,4-Dichlorophenyl)-2,3-dihydro-1,4-benzodioxin-2-yl]methyl}prop-2-en-1-amine] | –
20 | > 0.5 | 0.05 to 0.2 | Clc1ccccc1-c1cccc2c1OC(CNCC1CC1)CO2 (stereo not drawn) [Compound I-41, {[8-(2-Chlorophenyl)-2,3-dihydro-1,4-benzodioxin-2-yl]methyl}(cyclopropylmethyl)-amine] | –
– | > 0.5 | > 0.2 | Clc1ccc(-c2cccc3c2OC(CNCC2CC2)CO3)c(Cl)c1 (stereo not drawn) [Compound I-42, (Cyclopropylmethyl) {[8-(2,4-dichlorophenyl)-2,3-dihydro-1,4-benzodioxin-2-yl]methyl}amine] | –
30 | > 0.5 | > 0.2 | Clc1ccccc1-c1cccc2c1OC(CNC1CC1)CO2 (stereo not drawn) [Compound I-43, N-{[8-(2-Chlorophenyl)-2,3-dihydro-1,4-benzodioxin-2yl]methyl}cyclopropanamine] | –
